Data set [1] concerns the target T1, wild type HIV-1 reverse transcriptase (Human immunodeficiency virus type 1 group M subtype B, UniProt P04585).
T1 construct: a mixture of 100 nM HIV-1 reverse transcriptase and 300 nM primer/template
Nature of the data set: Kinetics of nucleotide incorporation by wild type HIV-1 reverse transcriptase. Format: biochemical. Particulars: RT WT. As to the method:
Continued research on the guanosine prodrug approach for making D4G a viable anti-HIV agent has yielded a number of new findings. In the present example, enzyme kinetics for the incorporation of the active metabolites of guanosine prodrugs with wild type HIV-1 reverse transcriptase was determined. In this experiment, a mixture of 100 nM HIV-1 reverse transcriptase and 300 nM primer/template in which the correct base incorporation is a guanine nucleotide was rapidly mixed with nucleotide in the presence of 50 mM Tris, 50 mM NaCl and 10 mM MgCl2 for a set amount of time and then the reaction was stopped by the addition 300 mM of EDTA.

Data set [2] deals with T1, wild type HIV-1 reverse transcriptase. Also noted: kpol/Kd: unit not given here. Particulars: from Ray and Anderson or Furman et al., cited from earlier work.
Another data set deals with HIV IIIB. Kind of data set: Anti-HIV activity in MT-2 cells infected with HIV IIIB, MTT dye cell viability. Format: cell-based. The settings on record: read-out: EC50 (concentration necessary to save 50% of the cells). As to the method: To assess the ability of the compounds according to the present invention to inhibit viral infection relative to other compounds experiments were performed in the MT-2 cell line, as previously described by Larder, et al., Antimicrobial Agents & Chemotherapy, vol. 34, 436 (1990). […] Cells were infected at an initial multiplicity of infection (MOI) of 0.1 and grown for 5 days. Cell viability was assessed by the use of dye metabolized by viable cells.
On the technique in general: Formazan colour is commonly taken as a measure of viable cells.

The next data set concerns MT-2. Nature of the data set: Toxicity, dye based cell growth assay in absence of HIV, MT-2. The settings on record: read-out: IC50 (inhibited 50% of the cell growth), MT-2, HTLV infected T cell line, 5 days. As to the method:
(§1) To determine the toxicity of the compounds to various cell lines (Table 1, below), a similar dye based assay is performed in the absence of HIV. The toxicity of the compounds alone therefore was determined.

Another data set has as its system CEM. Kind of data set: Toxicity, dye based cell growth assay, CEM. The settings on record: read-out: IC50 (inhibited 50% of the cell growth), CEM, T cell line, 5 days. How it is done: as §1
The subject of another data set is HEP-G2. Kind of data set: Toxicity, dye based cell growth assay, HEP-G2. Particulars: read-out: IC50 (inhibited 50% of the cell growth), HEP-G2, hepatoma cell line, 5 days. As to the method:
as §1

Another data set deals with KB. Nature of the data set: Toxicity, dye based cell growth assay, KB. Particulars: read-out: IC50 (inhibited 50% of the cell growth), oral carcinoma, 5 days. How it is done: as §1
The test system of another data set is HeLa. Kind of data set: Toxicity, dye based cell growth assay, HeLa. The settings on record: read-out: IC50 (inhibited 50% of the cell growth), cervical cancer cell line, 5 days. How it is done:
as §1

Data set [3] concerns mitochondrial DNA in CEM cells. Nature of the data set: Mitochondrial toxicity: ratio of mitochondrial DNA to Alu repeat in CEM cells. Format: cell-based. The settings on record: human, 8 days. From the text: After 8 days of growth the cells were lysed and probed for the amount of mitochondrial DNA and normalized for differences in the amount of total DNA by probing for the Alu repeat. By comparing the amount of mitochondrial DNA to the amount of Alu repeat the % decrease in mitochondrial DNA in the presence of various concentrations of drug can be obtained. All experiments were done in triplicate. Techniques which are presented here have been previously described in Chen and Cheng, J. Biol. Chem., vol. 264, 11934-7 (1989).

Data set [4] concerns HIV. Nature of the data set: Anti-HIV drug combination (synergy, isobologram of FEC50) in cell culture. Particulars: FIG. 3 and FIG. 4. Format: cell-based. How it is done: Points on this line represent the compounds working independently.
In an attempt to understand how D4G prodrugs of the present invention would interact with other clinically approved compounds, experiments were performed with drug combinations. […] Points on the line represent two compounds working independently. […] See, Bridges, et al., Biochem. Pharmacol., 51, 731 (1996) and Dutschman, et al., Antimicro. Agents Chemother. 42, 1799 (1998).

Data set [5] relates to HIV. The settings on record: pairs: D4T and AZT, 3TC and ddC, FD4C and 3TC, abacavir and cyclo D4G; Bridges et al., Dutschman et al.; cited from earlier work.
Data set [6] addresses T2, mitochondrial polymerase gamma (Homo sapiens, UniProt P54098).
T2 sequence (P54098 1-1239): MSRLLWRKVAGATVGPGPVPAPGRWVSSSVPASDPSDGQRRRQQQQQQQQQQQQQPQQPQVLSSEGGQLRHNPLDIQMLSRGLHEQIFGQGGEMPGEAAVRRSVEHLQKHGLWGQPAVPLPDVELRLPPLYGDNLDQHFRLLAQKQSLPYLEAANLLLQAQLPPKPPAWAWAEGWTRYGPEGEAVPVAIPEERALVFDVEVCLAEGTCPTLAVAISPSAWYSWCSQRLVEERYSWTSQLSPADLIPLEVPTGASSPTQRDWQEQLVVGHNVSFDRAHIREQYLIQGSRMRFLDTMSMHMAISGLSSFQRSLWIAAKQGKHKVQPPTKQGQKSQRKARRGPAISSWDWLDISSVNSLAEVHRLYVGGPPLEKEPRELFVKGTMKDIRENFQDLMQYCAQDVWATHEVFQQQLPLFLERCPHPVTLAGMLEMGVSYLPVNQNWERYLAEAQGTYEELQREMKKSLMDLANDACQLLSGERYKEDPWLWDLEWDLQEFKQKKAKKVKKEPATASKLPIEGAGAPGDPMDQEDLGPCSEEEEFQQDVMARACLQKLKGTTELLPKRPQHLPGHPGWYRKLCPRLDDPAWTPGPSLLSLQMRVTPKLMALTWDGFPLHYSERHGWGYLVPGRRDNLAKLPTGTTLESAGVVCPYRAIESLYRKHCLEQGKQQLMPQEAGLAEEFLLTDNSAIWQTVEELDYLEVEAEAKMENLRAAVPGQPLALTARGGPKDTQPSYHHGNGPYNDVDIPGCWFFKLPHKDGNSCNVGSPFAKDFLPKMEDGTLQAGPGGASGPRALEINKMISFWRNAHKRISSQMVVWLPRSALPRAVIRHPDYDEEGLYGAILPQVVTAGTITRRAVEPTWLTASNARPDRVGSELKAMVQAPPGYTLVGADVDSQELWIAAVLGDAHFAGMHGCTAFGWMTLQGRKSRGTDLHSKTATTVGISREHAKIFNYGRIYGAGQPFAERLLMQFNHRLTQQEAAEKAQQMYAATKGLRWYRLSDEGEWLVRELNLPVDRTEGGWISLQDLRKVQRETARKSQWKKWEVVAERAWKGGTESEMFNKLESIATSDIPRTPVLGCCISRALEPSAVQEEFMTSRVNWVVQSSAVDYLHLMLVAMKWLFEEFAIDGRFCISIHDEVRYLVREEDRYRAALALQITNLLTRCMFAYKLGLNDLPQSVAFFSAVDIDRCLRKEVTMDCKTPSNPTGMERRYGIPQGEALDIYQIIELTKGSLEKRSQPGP
Kind of data set: Nucleotide incorporation by mitochondrial polymerase gamma into an elongating DNA strand. The settings on record: mitochondrial polymerase gamma, incorporation. Format: biochemical.

Setting [7] is: Table 4, primer/template DNA/DNA.
[8] abbreviates: Table 4, primer/template DNA/RNA.
The mark [9] stands for this setting: Human immunodeficiency virus 1, MT2, 120 h, MT-2 cells, HIV IIIB, MOI 0.1, 5 days, MTT, NA = No Activity at concentrations up to 100 uM, EC50 not achievable due to toxicity.

Read-outs that look alike come from different tables or passages of the source.

The text below walks through data of US6900315B2, “2-amino-9H-purin-9-yl compounds and methods for inhibiting/treating HIV infections and AIDS related symptoms” (Yale University, priority 2001, dated 2005).

As usually defined, the Kd is the free concentration of one partner at which half of the binding sites on the other are occupied at equilibrium, for simple one-to-one binding. Broadly, the IC50 is the concentration that inhibits the measured activity by half.

Take `Nc1nc2c(ncn2C2C=CC(COP(=O)(O)OP(=O)(O)OP(=O)(O)O)C2)c(=O)[nH]1` (single isomer, unassigned; (-)) [CBVTP, (−) carbovir-TP]: in data set [1] (setting [7]), the Efficiency is 0.05 ± 0.01 s^−1μM^−1, the Kd came out at 21 ± 3 µM, the “Selectivity = efficiency dGTP/efficiency analog” value came out at 30 and the kpol was 1.0 ± 0.06 s⁻¹. In addition, in data set [1] (setting [8]), the Efficiency was determined as 0.42 ± 0.06 s^−1μM^−1; the affinity, expressed as Kd, was 3.7 ± 0.5 µM; the “Selectivity = efficiency dGTP/efficiency analog” value was determined as 10; the kpol turned out to be 1.5 ± 0.05 s⁻¹. In addition, in data set [2] (Table 3, substrate DNA/DNA), the “Selectivity = (kpol/Kd)dGTP/(kpol/Kd)analog” value is 30, the kpol is 1.0 ± 0.06 s⁻¹ and the kpol/Kd is 0.05 ± 0.01. Moreover, in data set [2] (Table 3, substrate DNA/RNA), the “Selectivity = (kpol/Kd)dGTP/(kpol/Kd)analog” value is 10, the kpol was 1.5 ± 0.05 s⁻¹ and the kpol/Kd is listed as 0.42 ± 0.06.

With `Nc1nc(NC2CC2)c2ncn([C@H]3C=C[C@@H](CO)C3)c2n1` [Abacavir], the EC50 in the data set with HIV IIIB (Human immunodeficiency virus 1, IIIB, MT2, 120 h) turned out to be 2 ± 0.4 µM. The IC50 in the data set with MT-2 (Homo sapiens, MT2, 120 h) stood at 60 ± 13 µM; with CEM (Homo sapiens, CCRF-CEM, 120 h) it was 200 ± 50 µM; in the data set on HEP-G2 (Homo sapiens, HepG2, 120 h), 180 ± 12 µM; with KB (Homo sapiens, 120 h), 200 ± 21 µM; with HeLa (Homo sapiens, 120 h) it was 500 ± 33 µM. In addition, the “% Control (mtDNA/Alu)” value in [3] (1 μM) was found to be 110%; in data set [3] (10 μM), 119%; in [3] (200 μM) it was 127%. In addition, the “Ration of mtDNA/Alu” value in data set [3] (1 μM) is 1.18 ± 0.03; in data set [3] (10 μM), 1.27 ± 0.06; in [3] (200 μM), 1.36 ± 0.06. Besides, the “anti-HIV interaction in combination with 3TC” value with HIV [4] is reported as “merely additive”. Moreover, the “anti-HIV interaction of two analogs of the same base” value with HIV [5] is given as “not synergistic”.

Regarding `Nc1nc(N)c2ncn([C@H]3CO[C@@H](CO)O3)c2n1` [DAPD], the EC50 in the data set on HIV IIIB (MT-2 cells, HIV IIIB, MOI 0.1, 5 days, MTT, NA = No Activity at concentrations up to 100 uM, EC50 not achievable due to toxicity) came to 15 ± 4 µM. Besides, the IC50 was over 100 µM with MT-2; over 500 µM with CEM; 500 ± 33 µM in the data set with HEP-G2; over 500 µM in the data set on KB; 500 ± 33 µM with HeLa.

`Nc1nc2c(ncn2[C@H]2CO[C@@H](COP(=O)(O)OP(=O)(O)OP(=O)(O)O)O2)c(=O)[nH]1` [DXGTP]: in data set [2] (Table 3, substrate DNA/DNA), the dissociation constant (Kd) is 2.5 ± 0.2 µM, the “Selectivity = (kpol/Kd)dGTP/(kpol/Kd)analog” value is listed as 3, the kpol was 1.46 ± 0.03 s⁻¹ and the kpol/Kd is 0.58 ± 0.05. In addition, in [2] (Table 3, substrate DNA/RNA), the dissociation constant Kd is 8.8 ± 1.1 µM, the “Selectivity = (kpol/Kd)dGTP/(kpol/Kd)analog” value is given as 20, the kpol was 1.5 ± 0.1 s⁻¹ and the kpol/Kd was 0.17 ± 0.02.

For the molecule `Nc1ccn([C@H]2CC[C@@H](CO)O2)c(=O)n1` [DdC, 2′,3′ dideoxycytodine], the EC50 in the data set on HIV IIIB (setting [9]) is 0.3 ± 0.05 µM. In addition, the IC50 is 2 ± 0.3 µM in the data set on MT-2 (Homo sapiens, MT2, 120 h); 3 ± 1 µM in the data set with CEM (Homo sapiens, CCRF-CEM, 120 h); 25 ± 2 µM with HEP-G2 (Homo sapiens, HepG2, 120 h); 100 ± 11 µM with KB (Homo sapiens, 120 h); over 100 µM with HeLa (Homo sapiens, 120 h). For the same molecule, the “% Control (mtDNA/Alu)” value came out at 87% in data set [3] (0.01 μM), 65% in data set [3] (0.1 μM) and 3% in data set [3] (1 μM). Further, the “Ration of mtDNA/Alu” value was found to be 0.93 ± 0.06 in data set [3] (0.01 μM), 0.70 ± 0.04 in [3] (0.1 μM) and 0.03 ± 0.01 in data set [3] (1 μM).

Consider `OC[C@@H]1CC[C@H](n2cnc3c(O)ncnc32)O1` [DdI, 2′,3′ dideoxyinosine], for which the EC50 in the data set with HIV IIIB (setting [9]) amounted to 20 ± 6 µM. Further, the IC50 with MT-2 (Homo sapiens, MT2, 120 h) is over 100 µM; in the data set on CEM (Homo sapiens, CCRF-CEM, 120 h) it was over 500 µM; with HEP-G2 (Homo sapiens, HepG2, 120 h) it was over 500 µM; with KB (Homo sapiens, 120 h) it was over 500 µM; with HeLa (Homo sapiens, 120 h), 500 ± 33 µM.

Turning to `Nc1nc(=O)n([C@@H]2C=C[C@H](CO)O2)cc1F` [FD4C], in the data set with HIV [5], the “anti-HIV interaction of two analogs of the same base” value is reported as “not synergistic”.

On to `Cc1cn([C@H]2C[C@H](O)[C@@H](COP(=O)(O)OP(=O)(O)OP(=O)(O)O)O2)c(=O)[nH]c1=O` [dTTP], for which, in data set [6], the Kd was 0.6 ± 0.16 µM, the kpol turned out to be 25 ± 2 s⁻¹ and the “kpol/Kd” value worked out at 3.9e+07 ± 1.3e+07 M⁻¹ s⁻¹.
